Results reported in PubChem BioAssay AID2060893 (Molecular Pharmacology Branch, DTP, NCI, 2025).
Several values for one entry are separate records, joined by “and”; a condition that tells them apart may be missing. Identical values can stand only once.

Tested on: K86415-001-R-J1-PDC complex spheroids, viability
Experiment: Anticancer human tumor K86415-001-R-J1-PDC patient-derived lung adenocarcinoma cell line growth inhibition [RAS]
Settings: for viability, T/C: stronger effect = lower value
Excerpt: RAS pathway inhibitors in Combinations in Complex Spheroids
A high-throughput screen of multi-cell type tumor spheroids was designed to identify active combinations of RAS pathway inhibitors and targeted small molecules. Complex spheroids include a stromal component modeled by human endothelial cells (HUVEC) and fibroblasts modeled by human mesenchymal stem cells (MSCs). The concentration ranges selected for each drug and investigational agent were based upon clinically achievable concentrations if the clinical Cmax of the agent was known.
Compounds. The drugs and investigational agents: abemaciclib (NSC768073), cobimetinib (NSC768068), divarasib (GDC6063, NSC841802), docetaxel (NSC628503), GDC-1971 (RLY-1971, NSC841576), gemcitabine (NSC613327), inavolisib (NSC800729), ipatasertib (NSC767898), KB-0742 (NSC834161), MRTX-1133 (NSC836407), osimertinib (NSC779217), RMC-4630 (NSC839698), RMC-6236 (NSC851965), RMC-6291 (NSC852671), Ro-3306 (NSC812927), sapanisertib (NSC764658), SN-38 (NSC673596), staurosporine (NSC755774), SY5609 (NSC837396), and tovorafenib (DAY101, NSC766906), were obtained from the National Cancer Institute (NCI) Developmental Therapeutics Program Chemical Repository. The FDA-approved anticancer drug set is available from the NCI Developmental Therapeutics Program. […] The stock solutions were prepared in dimethyl sulfoxide (DMSO, Sigma-Aldrich, St. Louis, MO, cat. D2650) at 800-fold the tested concentration and stored at -70 degrees C prior to their use. All drugs and investigational agents were tested over a range starting from a high concentration at or near the clinical Cmax and decreasing in half-log increments. If the clinical Cmax for an agent had not been determined, the highest concentration tested was 10 microM.
Cell Culture. All cells were maintained in an incubator at 37 degrees C and 5% CO2 with 95% humidity. The PDC lines were cultured according to standard operating procedures established by the NCI PDMR. All PDCs were thawed and cultured in Matrigel-coated flasks prepared with a working solution of 1X Ham's F-12 nutrient mix, without supplementation (Invitrogen, Waltham, MA, cat. 11765054), 100 U/mL penicillin-streptomycin (Invitrogen, cat. 15140122), and 2.5% Matrigel (Corning Inc., Corning, NY, cat. 354248) for the first three passages. The 362531-283-R-J2-PDC and 782815-120-R-J1-PDC lines were cultured in 6C/Colon 1B media, which includes advanced DMEM/F-12 (Thermo Fisher Scientific, cat. 12634028), 10 mM HEPES (Thermo Fisher Scientific, cat. 15630080), 1X GlutaMAX supplement (Thermo Fisher Scientific, cat. 35050061), 0.1 mg/mL primocin (InvivoGen, San Diego, CA, cat. ant-pm-2), 10% defined fetal bovine serum, heat inactivated (HyClone Laboratories Inc., Logan, UT, cat. SH30070.03HI), 50% L-WRN conditioned media (ATCC, cat. CRL-3276), 1.25 mM N-Acetyl-L-cysteine (Sigma-Aldrich, cat. A9165), 10 mM nicotinamide (Sigma-Aldrich, cat. N0636), 1X B-27 supplement (Thermo Fisher Scientific, cat. 17504044), 1X N-2 supplement (Thermo Fisher Scientific, cat. 17502048), 50 ng/mL human EGF (Thermo Fisher Scientific, cat. PHG0311), and 10 microM Y-27632 dihydrochloride (Tocris Bioscience, cat. 1254). The K12877-001-R-J1-PDC line was cultured in 6I media, which includes all 6C/Colon 1B media plus 10 ng/mL human FGF-10 (PeproTech, cat. 100-26), 1 ng/mL human FGF-2 (PeproTech, cat. 100-18B), 1 µM prostaglandin E2 (Tocris Bioscience, cat. 2296), […] hydrocortisone (Sigma-Aldrich, cat. H4001), and […] bovine insulin (Sigma-Aldrich, cat. I6634). The K86415-001-R-J1-PDC line was cultured in 6D media, which includes all 6C/Colon 1B media components minus the L-WRN conditioned media. The 485176-168-R4-J1-PDC was cultured in PANC media, which includes all 6C/Colon 1B media plus 100 ng/mL human FGF-10 (PeproTech, cat. 100-26), 500 nM SB-431542 (Selleckchem, cat. S1067), and 10 nM gastrin (Tocris Bioscience, cat. 3006). […]
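Further: spheroids exposed to agents for seven days before readout.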

With `CC1(O)CCCC1n1c(=O)c(C(F)F)cc2cnc(NC3CCN(S(C)(=O)=O)CC3)nc21` (centres undefined) the viability, T/C (compound 0.0316 µM) was 83.8% and 84.3% and 80.5% (2×), the viability, T/C (compound 0.1 µM) was 87.1% [middle of 4 runs] and the viability, T/C (compound 0.316 µM) was 65.7% [middle of 4 runs]. For the same molecule, the viability, T/C (compound 1 µM) was 72% (2×) and 75% and 80.8%, the viability, T/C (compound 10 µM) was 10.4% [middle of 4 runs] and the IC50 (curve of compound) was 5.04 µM [middle of 4 runs].

For `CCN1CCN(Cc2ccc(Nc3ncc(F)c(-c4cc(F)c5nc(C)n(C(C)C)c5c4)n3)nc2)CC1`, the viability, T/C (compound 0.00316 µM) was 97.9% [middle of 4 runs], the viability, T/C (compound 0.01 µM) was 90.2% [middle of 4 runs] and the viability, T/C (compound 0.0316 µM) was 78.5% [middle of 4 runs]. For the same molecule, the viability, T/C (compound 0.1 µM) was 71.3% [middle of 4 runs], the viability, T/C (compound 0.316 µM) was 70.2% [middle of 4 runs] and the viability, T/C (compound 1 µM) was 71.4% [middle of 4 runs]. The IC50 (curve of compound) was over 1000 nM.

In the case of `CCc1c2c(nc3ccc(O)cc13)-c1cc3c(c(=O)n1C2)COC(=O)[C@]3(O)CC`, the viability, T/C (compound 0.000949 µM) is reported as 102% (2×) and 97.3% and 88.2%, the viability, T/C (compound 0.003 µM) is reported as 38.8% [middle of 4 runs] and the viability, T/C (compound 0.00949 µM) is reported as 23.2% [middle of 4 runs]. The viability, T/C (compound 0.03 µM) was 17.6% [middle of 4 runs], the viability, T/C (compound 0.0949 µM) was 13.3% [middle of 4 runs] and the viability, T/C (compound 0.3 µM) was 5.27% [middle of 4 runs]. The IC50 (curve of compound) was 2.52 nM [middle of 4 runs].

For `CCn1c(-c2cc(N3CCN(C)CC3)cnc2C(C)OC)c2c3cc(ccc31)-c1csc(n1)CC(NC(=O)C1CC1C)C(=O)N1CCCC(N1)C(=O)OCC(C)(C)C2` (centres undefined), the viability, T/C (compound 0.000949 µM) was 50.3% [middle of 8 runs], the viability, T/C (compound 0.003 µM) was 22.4% [middle of 8 runs] and the viability, T/C (compound 0.00949 µM) was 10.2% [middle of 8 runs]. The viability, T/C (compound 0.03 µM) was 6.3% [middle of 8 runs], the viability, T/C (compound 0.0949 µM) was 3.96% [middle of 8 runs] and the viability, T/C (compound 0.3 µM) was 3.36% [middle of 8 runs].

In the case of `CCn1c(-c2cccnc2C(C)OC)c2c3cc(ccc31)N1CCOC(CC(NC(=O)C(C(C)C)N(C)C(=O)C3(F)CCN(C(=O)C#CC(C)(C)N(C)C)CC3)C(=O)N3CCCC(N3)C(=O)OCC(C)(C)C2)C1` (centres undefined), the viability, T/C (compound 0.000949 µM) is reported as 41.9% [middle of 8 runs], the viability, T/C (compound 0.003 µM) is reported as 13.8% [middle of 8 runs] and the viability, T/C (compound 0.00949 µM) is reported as 11.6% [middle of 7 runs]. The viability, T/C (compound 0.03 µM) was 12.7% [middle of 8 runs], the viability, T/C (compound 0.0949 µM) was 14.9% [middle of 8 runs] and the viability, T/C (compound 0.3 µM) was 14% [middle of 8 runs]. The IC50 (compound alone, run of 07/09/2024) was under 0.949 nM.

`C[C@@H](NC(=O)c1ncnc(N)c1Cl)c1ncc(C(=O)Nc2cc(C(F)(F)F)c(Cl)cn2)s1` was tested, and the viability, T/C (compound 0.0316 µM) was 113% [middle of 4 runs], the viability, T/C (compound 0.1 µM) was 113% [middle of 4 runs] and the viability, T/C (compound 0.316 µM) was 97.1% and 109% (2×) and 92.8%. For the same molecule, the viability, T/C (compound 1 µM) was 87.8% [middle of 4 runs], the viability, T/C (compound 3.16 µM) was 77.2% [middle of 4 runs] and the viability, T/C (compound 10 µM) was 64.7% [middle of 4 runs]. The IC50 (curve of compound) was over 10000 nM.

For `Nc1ccn(C2OC(CO)C(O)C2(F)F)c(=O)n1` (centres undefined), the viability, T/C (compound 0.00316 µM) was 106% [middle of 4 runs], the viability, T/C (compound 0.01 µM) was 97.5% [middle of 4 runs] and the viability, T/C (compound 0.0316 µM) was 78.7% [middle of 4 runs]. For the same molecule, the viability, T/C (compound 0.1 µM) was 61.3% [middle of 4 runs], the viability, T/C (compound 0.316 µM) was 31.2% [middle of 4 runs] and the viability, T/C (compound 1 µM) was 22.3% [middle of 4 runs]. The IC50 (curve of compound) was 136 nM [middle of 4 runs].

`O=C(c1ccc(F)c(F)c1Nc1ccc(I)cc1F)N1CC(O)([C@@H]2CCCCN2)C1` was tested, and the viability, T/C (compound 0.00316 µM) was 103% [middle of 4 runs], the viability, T/C (compound 0.01 µM) was 90% [middle of 4 runs] and the viability, T/C (compound 0.0316 µM) was 59% [middle of 4 runs]. The viability, T/C (compound 0.1 µM) was 46% [middle of 4 runs], the viability, T/C (compound 0.316 µM) was 22.4% [middle of 4 runs] and the viability, T/C (compound 1 µM) was 8.88% [middle of 4 runs]. The IC50 (curve of compound) was 68 nM [middle of 4 runs].
